From patent US20250325677A1, “STAT6 DEGRADERS” (Gilead Sciences, Inc., priority 2024, published 2025)

Assays:
[1] = test system: eotaxin-3 release; assay: Human whole blood eotaxin-3 assay (IL-4 stimulated); format: cell-based; conditions: human whole blood, IL-4 0.4 nM, 48 hours; geometric mean; given for compounds with >80% Emax; read-out: Eotaxin-3 EC50
Protocol: Human Whole Blood Eotaxin-3 Assay
This was a human whole blood assay using recombinant human Interleukin 4 to stimulate the blood and measuring the ability of the test compounds to inhibit eotaxin-3 release. Compounds or media were added to the wells and incubated together with human whole blood for 120 minutes at 37° C. Subsequently, recombinant IL-4 was added at a final concentration of 0.4 nM. The plates were incubated for 48 hours.
Test compounds which inhibited eotaxin-3 release upon stimulation with human IL-4 (E. coli) interfered with the signaling in human whole blood are expected to have activity in human beings. […] The EC50 value indicates at which concentration test compounds were active and in inhibiting the eotaxin-3 release. As eotaxin-3 release is down-stream of STAT6 signaling both STAT6 inhibitors and STAT6 degraders are active in this assay.
The data from the human whole blood eotaxin-3 assay is shown below for Examples 3e27, 3e50, 3e17, and 3e51 (where the effect in % is plotted against the test concentration in M on a log-scale).

[2] = target: STAT6 (Homo sapiens (Human), UniProt P42226); assay: STAT6 degrader assay (HiBiT, HeLa LgBiT clone 4.14); format: cell-based; conditions: HeLa LgBiT clone 4.14, 4-24 h; for Emax: read-out: STAT6 degradation Emax (%); for DC50: geometric mean, given for compounds with >80% Emax, read-out: STAT6 degradation DC50
STAT6, sequence (P42226 whole entry): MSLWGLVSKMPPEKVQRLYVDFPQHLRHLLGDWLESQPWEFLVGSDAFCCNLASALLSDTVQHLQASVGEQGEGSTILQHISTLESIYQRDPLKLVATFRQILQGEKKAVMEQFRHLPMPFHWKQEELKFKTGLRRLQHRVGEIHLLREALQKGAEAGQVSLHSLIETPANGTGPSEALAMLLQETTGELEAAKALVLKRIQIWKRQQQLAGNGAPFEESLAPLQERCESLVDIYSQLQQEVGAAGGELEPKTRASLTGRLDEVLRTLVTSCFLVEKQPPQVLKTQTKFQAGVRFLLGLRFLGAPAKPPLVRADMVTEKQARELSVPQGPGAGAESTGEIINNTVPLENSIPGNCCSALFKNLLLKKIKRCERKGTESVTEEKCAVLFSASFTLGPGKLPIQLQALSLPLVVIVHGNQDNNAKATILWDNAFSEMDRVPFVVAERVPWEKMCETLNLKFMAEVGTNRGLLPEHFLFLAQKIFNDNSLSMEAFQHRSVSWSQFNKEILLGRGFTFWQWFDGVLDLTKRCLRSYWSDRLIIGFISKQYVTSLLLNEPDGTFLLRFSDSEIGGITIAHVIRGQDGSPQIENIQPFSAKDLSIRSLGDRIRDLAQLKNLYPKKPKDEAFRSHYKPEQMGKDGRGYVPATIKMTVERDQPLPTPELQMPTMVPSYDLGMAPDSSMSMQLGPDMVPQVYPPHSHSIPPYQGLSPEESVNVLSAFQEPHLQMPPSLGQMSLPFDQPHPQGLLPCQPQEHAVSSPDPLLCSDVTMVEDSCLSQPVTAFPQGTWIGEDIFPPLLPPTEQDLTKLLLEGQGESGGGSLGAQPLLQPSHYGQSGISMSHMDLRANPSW
How it was run: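 DC50 (nM) comes from luminescence of non-degraded STAT6 read 0.5 h after Nano-GLO addition, following 4-24 h compound exposure at 37° C. Cells were HeLa clone 4.14 expressing LgBiT with a CRISPR HiBiT tag on endogenous STAT6; 50 μM terfenadine set full degradation.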

Row | EC50 [1] | Emax [2] | further results | SMILES
1 | 4.4 nM | – | – | CC[C@H]1CN(Cc2ccc3c(c2)n(C)c(=O)n3[C@@H]2CCC(=O)NC2=O)CCN1CC1CCN(C(=O)c2ccc(C3CCN([C@@H](C)c4cc5c(-c6ccc(N)nc6)ccnc5n4C)CC3)cc2)CC1 (single isomer, unassigned) [Example 3e57]
2 | 8.4 nM | – | – | CC[C@H]1CN(Cc2ccc3c(c2)n(C)c(=O)n3[C@H]2CCC(=O)NC2=O)CCN1CC1CCN(C(=O)c2ccc(C3CCN([C@@H](C)c4cc5c(-c6ccc(N)nc6)ccnc5n4C)CC3)cc2)CC1 (single isomer, unassigned) [Example 3e59]
3 | 3.6 nM | – | – | CNc1ccc(-c2ccnc3c2cc([C@H](C)N2CC=C(c4c(C)cc(C(=O)N5CCC(CN6CCN(Cc7ccc8c(c7)C7(CC7)C(=O)N8C7CCC(=O)NC7=O)C[C@@H]6C)CC5)cc4F)CC2)n3C)cn1 (stereo partly drawn) [Example 3h20, 3-(5′-(((S)-4-((1-(3-fluoro-5-methyl-4-(1-((S)-1-(1-methyl-4-(6-(methylamino)pyridin-3-yl)-1H-pyrrolo[2,3-b]pyridin-2-yl)ethyl)-1,2,3,6-tetrahydropyridin-4-yl)benzoyl)piperidin-4-yl)methyl)-3-methylpiperazin-1-yl)methyl)-2′-oxospiro[cyclopropane-1,3′-indolin]-1′-yl)piperidine-2,6-dione]
4 | 2.6 nM | – | – | C[C@H]1CN(Cc2ccc3c(c2)C2(CC2)C(=O)N3C2CCC(=O)NC2=O)CCN1CC1CCN(C(=O)c2ccc(C3CCN([C@@H](C)c4cc5c(-c6ccc(N)nc6)ccnc5n4C)CC3)cc2)CC1 (stereo partly drawn) [Example 3h29, 3-(5′-(((S)-4-((1-(4-(1-((S)-1-(4-(6-aminopyridin-3-yl)-1-methyl-1H-pyrrolo[2,3-b]pyridin-2-yl)ethyl)piperidin-4-yl)benzoyl)piperidin-4-yl)methyl)-3-methylpiperazin-1-yl)methyl)-2′-oxospiro[cyclopropane-1,3′-indolin]-1′-yl)piperidine-2,6-dione]
5 | 31.7 nM | – | – | C[C@H]1CN(Cc2cc3c(cc2F)N(C2CCC(=O)NC2=O)C(=O)C3(C)C)CCN1CC1CCN(C(=O)c2ccc(C3CCN([C@@H](C)c4cc5c(-c6ccc(N)nc6)ccnc5n4C)CC3)cc2)CC1 (stereo partly drawn) [Example 3h35, 3-(5-(((S)-4-((1-(4-(1-((S)-1-(4-(6-aminopyridin-3-yl)-1-methyl-1H-pyrrolo[2,3-b]pyridin-2-yl)ethyl)piperidin-4-yl)benzoyl)piperidin-4-yl)methyl)-3-methylpiperazin-1-yl)methyl)-6-fluoro-3,3-dimethyl-2-oxoindolin-1-yl)piperidine-2,6-dione]
6 | 8.3 nM | – | – | CNc1ccc(-c2ccnc3c2cc([C@H](C)N2CC=C(c4c(F)cc(C(=O)N5CCC(CN6CCN(Cc7ccc8c(c7)C7(CC7)C(=O)N8C7CCC(=O)NC7=O)C[C@@H]6C)CC5)cc4F)CC2)n3C)cn1 (stereo partly drawn) [Example 3h36, 3-(5′-(((S)-4-((1-(3,5-difluoro-4-(1-((S)-1-(1-methyl-4-(6-(methylamino)pyridin-3-yl)-1H-pyrrolo[2,3-b]pyridin-2-yl)ethyl)-1,2,3,6-tetrahydropyridin-4-yl)benzoyl)piperidin-4-yl)methyl)-3-methylpiperazin-1-yl)methyl)-2′-oxospiro[cyclopropane-1,3′-indolin]-1′-yl)piperidine-2,6-dione]
7 | 95.5 nM | – | – | CNc1ccc(-c2ccnc3c2cc(CN2CC=C(c4c(F)cc(C(=O)N5CCC(CN6CCN(Cc7ccc8c(c7)C7(CC7)C(=O)N8C7CCC(=O)NC7=O)C[C@@H]6C)CC5)cc4F)CC2)n3C)cn1 (stereo partly drawn) [Example 3h37, 3-(5′-(((S)-4-((1-(3,5-difluoro-4-(1-((1-methyl-4-(6-(methylamino)pyridin-3-yl)-1H-pyrrolo[2,3-b]pyridin-2-yl)methyl)-1,2,3,6-tetrahydropyridin-4-yl)benzoyl)piperidin-4-yl)methyl)-3-methylpiperazin-1-yl)methyl)-2′-oxospiro[cyclopropane-1,3′-indolin]-1′-yl)piperidine-2,6-dione]
8 | 19.4 nM | – | – | C[C@@H](c1cc2c(-c3ccc(N)nc3)ccnc2n1C)N1CCC(c2ccc(C(=O)N3CCC(CN4CCN(c5cc6c(cc5F)n(C5CCC(=O)NC5=O)c(=O)n6C)CC4)CC3)cc2)CC1 (stereo partly drawn) [Example 3h44, 3-(5-(4-((1-(4-(1-((S)-1-(4-(6-aminopyridin-3-yl)-1-methyl-1H-pyrrolo[2,3-b]pyridin-2-yl)ethyl)piperidin-4-yl)benzoyl)piperidin-4-yl)methyl)piperazin-1-yl)-6-fluoro-3-methyl-2-oxo-2,3-dihydro-1H-benzo[d]imidazol-1-yl)piperidine-2,6-dione]
9 | – | 60 to 70% | – | Cn1c(CN2CCC(c3ccc(C(=O)N4CCC(CN5CCN(Cc6ccc7c(c6)oc(=O)n7C6CCC(=O)NC6=O)CC5)CC4)cc3)CC2)cc2c(-c3ccc(N)nc3)ccnc21 (stereo not shown) [Example 3n1, 3-(6-((4-((1-(4-(1-((4-(6-aminopyridin-3-yl)-1-methyl-1H-pyrrolo[2,3-b]pyridin-2-yl)methyl)piperidin-4-yl)benzoyl)piperidin-4-yl)methyl)piperazin-1-yl)methyl)-2-oxobenzo[d]oxazol-3 (2H)-yl)piperidine-2,6-dione]
10 | – | – | DC50 [2]: 1.1 nM | COCc1nc2cc(-c3ccnc4c3cc(CN3CCC(c5ccc(C(=O)N6CCC(CN7CCN(Cc8ccc9c(c8)oc(=O)n9C8CCC(=O)NC8=O)CC7)CC6)cc5)CC3)n4C)ccc2[nH]1 (stereo not shown) [Example 3n2, 3-(6-((4-((1-(4-(1-((4-(2-(methoxymethyl)-1H-benzo[d]imidazol-5-yl)-1-methyl-1H-pyrrolo[2,3-b]pyridin-2-yl)methyl)piperidin-4-yl)benzoyl)piperidin-4-yl)methyl)piperazin-1-yl)methyl)-2-oxobenzo[d]-oxazol-3 (2H)-yl)piperidine-2,6-dione]
11 | – | – | DC50 [2]: 0.1 nM | CN(C(=O)c1ccc(C2CCN(Cc3cc4c(-c5ccc(N)nc5)ccnc4n3C)CC2)cc1)c1ccc(C2CCN(Cc3ccc4c(c3)oc(=O)n4C3CCC(=O)NC3=O)CC2)cc1 (stereo not shown) [Example 3n3, 4-(1-((4-(6-aminopyridin-3-yl)-1-methyl-1H-pyrrolo[2,3-b]pyridin-2-yl)methyl)piperidin-4-yl)-N-(4-(1-((3-(2,6-dioxopiperidin-3-yl)-2-oxo-2,3-dihydrobenzo[d]oxazol-6-yl)methyl)piperidin-4-yl)phenyl)-N-methylbenzamide]
12 | – | – | DC50 [2]: 0.1 nM | COCc1nc2cc(-c3ccnc4c3cc(CN3CCC(c5ccc(C(=O)N(C)c6ccc(C7CCN(Cc8ccc9c(c8)oc(=O)n9C8CCC(=O)NC8=O)CC7)cc6)cc5)CC3)n4C)ccc2[nH]1 (stereo not shown) [Example 3n4, N-(4-(1-((3-(2,6-dioxopiperidin-3-yl)-2-oxo-2,3-dihydrobenzo[d]oxazol-6-yl)methyl)piperidin-4-yl)phenyl)-4-(1-((4-(2-(methoxymethyl)-1H-benzo[d]imidazol-5-yl)-1-methyl-1H-pyrrolo[2,3-b]pyridin-2-yl)methyl)piperidin-4-yl)-N-methylbenzamide]
13 | – | < 20% | – | COCc1nc2cc(-c3ccnc4c3cc(CN3CCC(c5ccc(C(=O)N6CCC(CN7CCN(Cc8ccc9c(c8)n(C8CCC(=O)NC8=O)c(=O)n9C)CC7)CC6)cc5)CC3)n4C)ccc2[nH]1 (stereo not shown) [Example 3o1, 3-(6-((4-((1-(4-(1-((4-(2-(methoxymethyl)-1H-benzo[d]imidazol-5-yl)-1-methyl-1H-pyrrolo[2,3-b]pyridin-2-yl)methyl)piperidin-4-yl)benzoyl)piperidin-4-yl)methyl)piperazin-1-yl)methyl)-3-methyl-2-oxo-2,3-dihydro-1H-benzo[d]imidazol-1-yl)piperidine-2,6-dione]
14 | – | < 20% | – | Cn1c(CN2CCC(c3ccc(C(=O)N4CCC(CN5CCN(Cc6ccc7c(c6)n(C6CCC(=O)NC6=O)c(=O)n7C)CC5)CC4)cc3)CC2)cc2c(-c3ccc(N)nc3)ccnc21 (stereo not shown) [Example 3o2, 3-(6-((4-((1-(4-(1-((4-(6-aminopyridin-3-yl)-1-methyl-1H-pyrrolo[2,3-b]pyridin-2-yl)methyl)piperidin-4-yl)benzoyl)piperidin-4-yl)methyl)piperazin-1-yl)methyl)-3-methyl-2-oxo-2,3-dihydro-1H-benzo[d]imidazol-1-yl)piperidine-2,6-dione]
15 | – | < 20% | – | Cn1c(CN2CCC(c3ccc(C(=O)N4CCC(CN5CCC(c6cccc7c6n(C)c(=O)n7C6CCC(=O)NC6=O)CC5)CC4)cc3)CC2)cc2c(-c3ccc4[nH]ncc4c3)ccnc21 (stereo not shown) [Example 3t1, 3-(4-(1-((1-(4-(1-((4-(1H-indazol-5-yl)-1-methyl-1H-pyrrolo[2,3-b]pyridin-2-yl)methyl)piperidin-4-yl)benzoyl)piperidin-4-yl)methyl)piperidin-4-yl)-3-methyl-2-oxo-2,3-dihydro-1H-benzo[d]imidazol-1-yl)piperidine-2,6-dione]
16 | – | < 20% | – | Cn1c(CN2CCC(c3ccc(C(=O)N4CCC(Cn5cc(-c6cccc7c6n(C)c(=O)n7C6CCC(=O)NC6=O)nn5)CC4)cc3)CC2)cc2c(-c3ccc4[nH]ncc4c3)ccnc21 (stereo not shown) [Example 3t2, 3-(4-(1-((1-(4-(1-((4-(1H-indazol-5-yl)-1-methyl-1H-pyrrolo[2,3-b]pyridin-2-yl)methyl)piperidin-4-yl)benzoyl)piperidin-4-yl)methyl)-1H-1,2,3-triazol-4-yl)-3-methyl-2-oxo-2,3-dihydro-1H-benzo[d]imidazol-1-yl)piperidine-2,6-dione]
